Experiments:
secondary leg lymphedema = test: study of ubenimex in patients with secondary leg lymphedema; assay type: in vivo, human; details: oral 150 mg three times daily, 6-month treatment period
Method: A study is conducted for treatment of patients with acquired lymphedema of the lower extremities with ubenimex. In this study, ubenimex is evaluated over a 6-month treatment period to determine the effect on dermal thickness and other efficacy measures in patients with secondary leg lymphedema. The efficacy, safety and tolerability of ubenimex in this patient population is characterized. Adult male and female subjects are enrolled with a confirmed diagnosis of Stage II or greater secondary leg lymphedema, based on a positive lymphoscintigraphy (LSG) study of the affected leg. At least 20 individuals are enrolled in each of the treatment and placebo arm of the trial. Individuals are given oral 150 mg ubenimex three times daily for a total daily dose of 450 mg. The drug and placebo are provided in a capsule form. Efficacy assessments include skin thickness (as measured by skinfold calipers), leg volume (as measured by standardized tape measure), bioimpedance (as measured by the […]) to measure 4-limb bioimpedance to determine extracellular fluid volume), and skin biopsy results (as measured by 6-mm skin punch biopsy samples to assess skin thickness and architecture (e.g., presence of hyperkeratosis, dermal collagen, and adipose deposition).

[1] = system: acquired lymphedema surgically induced in the tails of female C57BL/6J mice; test: mouse-tail model of acquired lymphedema (tail volume, histology); assay type: in vivo
Method: Surgical induction of experimental lymphatic vascular insufficiency. […] Briefly, a full-thickness circumferential incision of the skin was made 16 mm distal to the base of the mouse tail under anesthesia. Lymphatic trunks were ablated through controlled, limited cautery application under the surgical microscope. For surgical controls (sham animals), the skin incision alone was performed without lymphatic cautery.
All small molecule drugs were administered through daily intraperitoneal injection.
Tail volume quantitation. Tail-volume measurements at each designated time were quantified by observers blinded to the treatment status of the subjects. Tail volumes were calculated through a digital photographic technique pre-operatively, and post-operatively (d3, d9, d14, d20, and d24), using an Olympus D520 Zoom digital camera at SHQ resolution at a fixed distance from the subject (37 cm), as previously described. Tail volumes were derived from the measurement of the tail diameter using the truncated cone approximation. Microlymphangiography was performed by injecting FITC-dextran (size: 2000 kDa) subcutaneously into mouse tails on post-surgery d24. Images were taken 20 minutes after injection.
Viral particles were mixed with Lipofectamine 2,000 (5% final vol/vol, Invitrogen) before injection, to increase transduction efficiency. qRT-PCR, immunofluorescence and fluorescence in situ hybridization were used to evaluate the silencing efficiency in the mouse tail skin 24d after surgery.

LEC Notch1−/− mice = test: lymphedema surgery in LEC Notch1-/- mice; assay type: in vivo, mouse
Excerpt: To generate lymphatic endothelial specific tdTomato reporter mice (Prox1-Cre-ER-tdTomato), Prox1-Cre-ER mice were crossed with tdTomato mice. To create lymphatic endothelial cell specific Notch1 or S1pr1 conditional knockouts, Prox1-Cre-ER mice were crossed with Notch1loxp/loxp or S1pr1loxp/loxp mice. Mice with Prox1-Cre-ER and both target alleles floxed by Prox1-Cre-ER/Notch1^loxp/loxp or Prox1-Cre-ER/S1pr1^loxp/loxp were considered to be either lymphatic endothelial cell-specific Notch1 knockout (LEC Notch1−/−) or S1pr1 knockout (LEC S1pr1^−/−), respectively. Mice expressing Prox1-Cre-ER were used as WT controls. […] Cre-mediated gene knockout efficiency was evaluated by enumerating Notch1- or S1PR1-expressing lymphatic endothelial cells or by qRT-PCR measurements of Notch1 or S1pr1 transcripts in the lymphatic endothelial cells, sorted by flow cytometry. […]
Tail volume quantitation. Tail-volume measurements at each designated time were quantified by observers blinded to the treatment status of the subjects. Tail volumes were calculated through a digital photographic technique pre-operatively, and post-operatively (d3, d9, d14, d20, and d24), using an Olympus D520 Zoom digital camera at SHQ resolution at a fixed distance from the subject (37 cm), as previously described. […]

CC(C)C[C@H](NC(=O)[C@@H](O)[C@H](N)Cc1ccccc1)C(=O)O [bestatin, (2S)-2-[[(2S,3R)-3-amino-2-hydroxy-4-phenylbutanoyl]amino]-4-methylpentanoic acid]
difference between ubenimex and placebo treatment arms by clinical indicia (secondary leg lymphedema): statistically significant difference | benefit of LTB4 antagonism administered prior to surgery ([1]; therapies administered prior to sham and lymphedema surgery (bestatin, Ly293111 from d0, shLtb4r1 on d(−7))): not beneficial | amelioration of lymphedema (serial tail-volume measurements over 24d) ([1]; therapies started on post-surgery d3 (late LTB4 antagonism)): demonstrated therapeutic amelioration of lymphedema | reversal of more established disease by delayed dosing ([1]; therapy initiated 9d or 14d post-surgically): effective | response of lymphedema to therapy (LEC Notch1−/− mice): refractory | mural smooth muscle coverage around collecting lymphatics (LEC Notch1−/− mice; as against WTs): not restituted
